The test system of one experiment is p38 and NF-kB. Kind of experiment: Analysis of p38 and NF-kB activation on lung DCs. The format is cell-based, murine. Here is the method: P38 and NF-kB were activated on lung DCs by exposure for 20 minutes at 37° C. to Aspergillus conidia and/or 100 ng/ml TA1. Blots of cell lysates were incubated with rabbit polyclonal Abs recognizing either the unphosphorylated form of p38 MAPK, or the double-phosphorylated (Thr-180/Tyr-182) p38 MAPK, or Abs specific for the Rel A, 65 kDa DNA binding subunit of human NF-kB followed by horseradish peroxidase-conjugated goat anti-rabbit IgG, as per manufacturer's instructions. Blots were developed with an Enhanced Chemiluminescence detection kit. Bands were visualized after exposure of the blots to a Kodak RX film. To ensure similar protein loading in each lane, the phospho blots were stripped and the membranes were reprobed with Abs against p38 and NF-kB.

For experiment [1], the system named is human MDC and PDC subsets. Kind of experiment: Activation of human MDC and PDC subsets: phagocytosis, phenotype, cytokine release. The format is cell-based. As to conditions: in response to conidia. Here is the method: Blood CD 11c^+ myeloid DCs (MDCs) were generated from CD 14^+ mononuclear cells by magnetic cell sorting and cultured for 5 days in Iscove's modified medium, containing 10% fetal bovine serum, 50 micromolar 2-mercaptoethanol, sodium pyruvate (1 mM), 2 mM L-glutamine, HEPES (10 mM), and 50 micrograms/ml gentamycin in the presence of 50 ng/ml rHuman GM-CSF and 200 U/ml rHuman IL-4. Immature MDCs were cultured for 24 hours with 1000 ng/ml trimeric human CD40 ligand-leucine-zipper fusion protein to obtain mature DCs. CD 123^+ plasmacytoid DCs (PDCs) were isolated using the BDCA-4 isolation kit. Purity of CD 123^+ cells was >96%. For mature PDCs, immature DCs were cultured with the trimeric human CD40 ligand as above and 10 ng/ml IL-3. […] The expression of HLA Class II, CD80 and CD86 was high in both immature and mature DCs. Murine lung CD 11c^+ DCs (between 5 to 7% positive for CD8alpha and between 30 to 35% positive for Gr-1) were isolated by magnetic cell sorting. For phagocytosis, DCs were pre-exposed to 100 ng/ml TA1 for 60 minutes and subsequently incubated at 37° C. with Aspergillus conidia for an additional 60 minutes. The percentage of internalization was calculated and photographs were taken. In assessing functional maturation and cytokine determination, purified DCs were resuspended in Iscove's medium (with no serum but with polymixin B, to avoid non-specific activation by serum components and endotoxin) and pulsed with 100 ng/ml TA1 for 24 hours either alone or together with TLR ligands or unopsonized Aspergillus conidia. Cell surface phenotype was assessed by reacting samples with FITC- or PE-conjugated rat anti-mouse antibodies. Unrelated hisotype matched antibodies were used as control. The levels of TNF-alpha, IL-10, IL-12 p70, IFN-alpha and IL-8 in culture supernatants were determined by Kit ELISAs. The detection limits (pg/ml) of the assays were <3 (human) and <32 (murine) for TNF-alpha, <12 (murine) and <5 (human) for IL-10, <16 (murine) and <3 (human) for IL-12 p70 and <25 (human) IL-8. For human IFN-alpha <3 ng/ml. For enumeration of cytokine-producing cells, an ELISPOT assay was used on purified CD4^+ T cells and DCs from lungs.

In a further experiment the test system is murine DCs. In words: RT-PCR of TLR expression on DCs. The format is cell-based. Here is the method:
Synthesis and PCR of cDNA were performed with forward and reverse PCR primers and the cycles used for murine and human TLRs and HPRT. The synthesized PCR products were separated by electrophoresis on 2% agarose gel and visualized by ethidium bromide staining.

Another experiment has as its system A. fumigatus. In words: BMT mice with invasive aspergillosis: survival, fungal growth in lungs (chitin assay), lung histology. Format: in vivo. The settings on record: G-CSF 250 microgram/kg intravenously. An excerpt:
For infection with A. fumigatus, mice were intranasally injected for 3 consecutive days with a suspension of 2×10^7 conidia/20 microliter saline. For the quantification of fungal growth in the lungs, the chitin assay was used. The chitin content was expressed as micrograms of glucosamine per organ. The glucosamine content of lungs from uninfected mice was used as a negative control ranging between 0.80 and 2.25 microgram glucosamine/organ. For histological analysis, lungs were excised and immediately fixed in formalin. Sections (3 to 4 micron) of paraffin-embedded tissues were stained with the periodic acid-Schiff procedure. Thymosin alpha 1 (TA1) and the scrambled polypeptide are as purified sterile lyophilized acetylated polypeptides with endotoxin levels less than 0.03 pg/ml, by a standard limulus lysate assay. The sequences were as follows: Ac-[…]O (Thymosin alpha 1, SEQ ID NO.: 1) and Ac-[…]OH ([…]). Their lyophilized powders were reconstituted in sterile water.
The treatments were as follows; in BMT-mice, TA1, at different doses administered intraperitoneally, sthymosin alpha 1, 400 microgram/kg administered intraperitoneally or human recombinant G-CSF 250 microgram/kg administered intravenously, were given daily beginning the day of the BM infusion, in concomitance with the infection and continuing for an additional 3 days. Amphotericin B was given daily for 3 days in concomitance with the infection, at a dose of 4000 microgram/kg, administered intraperitoneally. This dose would cure IA in cyclophosphamide-treated mice. Cyclophosphamide, 150 mg/kg administered intraperitoneally, was given a day before the infection. In cyclophosphamide-treated mice, 400 microgram/kg TA1 was given intraperitoneally for 5 consecutive days beginning the day of the infection.
C57BL6 mice were exposed to a lethal dose of 9 Gy and infused with T cell-depleted donor cells from BALB/c mice.

Where [2] appears, read: combined exposure to conidia and peptide.

From patent US8389680B2, “Treatment of Aspergillus infections with alpha thymosin peptides” (SciClone Pharmaceuticals, Inc., priority 2003, dated 2013) come the findings set out here.

In the case of `Oc1ccc(-c2nc(-c3ccncc3)c(-c3ccc(F)cc3)[nH]2)cc1` [SB202190], the “effect of inhibitor on the effect of TA1 on DCs” value in the experiment with p38 and NF-kB (inhibitor given with TA1) is listed as “ablate the effect of TA1 on DCs”.
As to “Ac-Ala-Lys-Ser-Asp-Val-Lys-Ala-Glu-Thr-Ser-Ser-Glu-Ile-Asp-Thr-Thr-Glu-Leu-Asp-Glu-Lys-Val-Glu-Val-Lys-Ala-Asn-Glu-OH (Ac-AKSDVKAETSSEIDTTELDEKVEVKANE-OH) [scrambled peptide]”, in experiment [1], the “HLA Class II antigens and costimulatory molecule expression” value is reported as “failed to up-regulate”; the “cytokine production by DCs” value is “failed”. For the same molecule, in the experiment on p38 and NF-kB (peptide alone, 20 minutes), the p38 phosphorylation entry was “not stimulated”. In addition, the p38 phosphorylation entry with p38 and NF-kB (scrambled peptide plus conidia) is given as “not stimulated”. Further, in the experiment with murine DCs (setting [2]), the “expression of TLR2” value is listed as “failed to activate” and the “expression of TLR9” value is “failed to activate”. In the experiment with murine DCs (peptide alone), the “expression of TLR2” value is reported as “failed to activate” and the “expression of TLR9” value was “failed to activate”.

B1: G-CSF: human recombinant G-CSF, known to accelerate neutrophil recovery in mice (protein, UniProt P09919 31-207, looked up)
Granulocyte …: TPLGPASSLPQSFLLKCLEQVRKIQGDGAALQEKLVSECATYKLCHPEELVLLGHSLGIPWAPLSSCPSQALQLAGCLSQLHSGLFLYQGLLQALEGISPELGPTLDTLQLDVADFATTIWQQMEELGMAPALQPTQGAMPAFASAFQRRAGGVLVASHLQSFLEVSYRVLRHLAQP
Regarding B1, the “antifungal resistance by recovery from neutropenia alone, compared with TA1” value in the experiment on A. fumigatus is on record as “not sufficient”.
